Source: patent US11116778B2, “Prodrugs of ALOX-15 inhibitors and methods of using the same” (EMPIRICO INC., priority 2019, dated 2021)

What was measured:
alkaline phosphatase = target: T1, alkaline phosphatase (Bos taurus, UniProt P19111); assay: in vitro; format: in vitro ADME, Calf; details: calf (bovine), pH 8.8
T1 construct: purchased EMD Millipore 524572
Protocol: (§1) To determine if there was effect of addition phosphatase to the phosphate, 30 units of alkaline phosphatase (EMD Millipore Phosphatase, Alkaline, Calf Intestine catalog number 524572) was added to compound 5 and the UV spectrum (210-600 nm) was measured before and after addition of phosphatase. The was a shift in the absorbance maximum from 250 to 260 nm. The ratio of 250/260 went from 0.924 to 1.067 after phosphatase treatment.
(§2) Phosphatase treatment was repeated with 0.1 unit of phosphatase (56 ug) and 0.6 mM compound 5 at a volume of 100 uL (100 mM Tris pH 8.8, 5 mM MgCl2) and monitored as function of time. […] A unit is defined as the amount that can hydrolyze 1 μmol/min of p-nitrophenyl phosphate (PNP). Meaning that 0.1 unit of enzyme was hydrolyzing 0.015 units of phosphate: a ˜6.6 fold decrease in activity relative to PNP.

[1] = target: T2, alkaline phosphatase (Phosphatase, Alkaline, Calf Intestine) (Bos taurus, UniProt P19111); assay: in vitro; format: in vitro ADME
T2 construct: purchased EMD Millipore 524572
T2 sequence (P19111 20-506): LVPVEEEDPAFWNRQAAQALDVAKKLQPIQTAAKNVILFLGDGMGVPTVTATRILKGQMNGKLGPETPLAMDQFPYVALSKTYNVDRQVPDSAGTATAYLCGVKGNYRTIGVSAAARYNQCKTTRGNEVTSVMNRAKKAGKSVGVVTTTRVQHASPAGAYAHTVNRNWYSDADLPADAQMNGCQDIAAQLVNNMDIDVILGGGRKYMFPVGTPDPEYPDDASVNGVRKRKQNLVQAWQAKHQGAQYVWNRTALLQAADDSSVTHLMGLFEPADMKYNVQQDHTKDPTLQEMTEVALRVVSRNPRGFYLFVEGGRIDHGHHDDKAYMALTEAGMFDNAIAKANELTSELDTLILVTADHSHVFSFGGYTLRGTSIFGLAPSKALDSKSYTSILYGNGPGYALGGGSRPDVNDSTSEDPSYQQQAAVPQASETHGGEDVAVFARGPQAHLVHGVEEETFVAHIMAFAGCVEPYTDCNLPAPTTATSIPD
Protocol: as §1, §2

[2] = system: Human nasal epithelial primary cells (HNEpC); assay: Levels of compound 5 and compound 3 in media of human nasal epithelial primary cells, LC-MS/MS; format: in vitro ADME; details: HNEpC treated with 5 μM or 1 μM compound 5
Protocol: Human nasal epithelial primary cells (HNEpC) (PromoCell GmbH, Heidelberg, Germany) were cultured according to the manufacturer in provided Primary Cell media in 24 well plates at a density of 25,000 cells per well. Cells were treated with 5 μM or 1 μM of compound 5 or vehicle only (water) in media containing 20 ng/mL IL-13 for 24 hours in a 37° C. cell culture incubator. The following day, media was replaced and fresh media containing 20 ng/mL IL-13 and compound 5 or vehicle was added to each well, then incubated again for 24 hours in a 37° C. cell culture incubator. The process was repeated once more for a 24-hour period.
To determine levels of arachidonic acid and linoleic acid metabolites after compound treatment, cell media was replaced with fresh Primary Cell media without IL-13. ALOX15 substrate (arachidonic acid or linoleic acid) was added to each well at a concentration of 1.5 μM and cells further incubated 37° C. for 1 hour. Media was collected from each well and quenched with an equal volume of LC/MS extraction buffer (methanol, 60 mM ascorbic acid, 0.1% acetic acid).
From the quenched media samples, compound 5 and compound 3 were also quantified. Compound 3 was quantified using LC-MS/MS (QTrap5500, Applied Biosystems). […] Compound 5 was quantified using LC-MS/MS (QTrap5500, Applied Biosystems). […]

[3] = target: T3, 15-lipoxygenase in primary peripheral blood eosinophils (Homo sapiens, UniProt P16050); assay: Inhibition of 15-lipoxygenase in human primary eosinophils, 15(S)-HETE ELISA; details: 3 μM arachidonic acid
T3 sequence (P16050 1-662): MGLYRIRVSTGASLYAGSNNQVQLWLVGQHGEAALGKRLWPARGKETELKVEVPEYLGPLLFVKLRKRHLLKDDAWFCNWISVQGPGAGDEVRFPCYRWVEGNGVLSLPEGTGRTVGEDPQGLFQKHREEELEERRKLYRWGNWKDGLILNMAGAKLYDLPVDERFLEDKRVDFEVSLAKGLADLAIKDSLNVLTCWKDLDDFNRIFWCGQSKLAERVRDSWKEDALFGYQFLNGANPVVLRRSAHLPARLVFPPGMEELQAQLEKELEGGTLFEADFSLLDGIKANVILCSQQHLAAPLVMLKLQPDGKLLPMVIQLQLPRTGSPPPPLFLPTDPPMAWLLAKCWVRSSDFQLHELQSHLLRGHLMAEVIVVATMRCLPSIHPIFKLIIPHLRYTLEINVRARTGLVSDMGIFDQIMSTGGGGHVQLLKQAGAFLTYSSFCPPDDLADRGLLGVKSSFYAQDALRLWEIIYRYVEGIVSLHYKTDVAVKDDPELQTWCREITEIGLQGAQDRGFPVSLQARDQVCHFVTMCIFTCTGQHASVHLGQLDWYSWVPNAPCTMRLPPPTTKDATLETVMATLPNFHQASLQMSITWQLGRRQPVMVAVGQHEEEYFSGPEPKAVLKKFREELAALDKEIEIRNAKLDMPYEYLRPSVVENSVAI
Protocol: Primary peripheral blood eosinophils from 2 separate donors (StemExpress) were thawed from frozen and allowed to recover in growth media for 4 hours at 37° C. Cells were washed with Hank's Balanced Salt Solution, then aliquoted into 96 well round bottomed plate at 1*10^5 cells/well, 200 μL/well. […] Arachidonic acid was added to final concentration of 3 μM and experiment started. At 1 hour post-treatment the supernatant was collected and 15(S)-HETE was quantified by ELISA (Cayman Chemical) according to manufacturer's recommended protocol. Comparisons were made between the cells treated with the test compounds and cells treated with vehicle only.

T1 sequence (P19111 20-506): as the sequence (P19111 20-506) above

half-life at 0.6 mM (alkaline phosphatase): 2 min
decrease in phosphatase activity relative to PNP (p-nitrophenyl phosphate) ([1]; 0.1 unit of enzyme hydrolyzing 0.015 units of phosphate): ~6.6 fold
rate at which the phosphatase cleaved the phosphate ([1]; 0.1 unit phosphatase, 0.6 mM compound 5, 100 uL): 0.015 µmol/min
decrease in 15-HETE production compared to vehicle or ALP alone (FIG. 2) ([3]; 10 μM pretreated 15 minutes with 0.2 U alkaline phosphatase (ALP), 1 hour): approximately 60%
decrease in 15-HETE production compared to vehicle or ALP alone (FIG. 2) ([3]; 10 μM, 1 hour post-treatment): approximately 40%
SMILES: O=C(Nc1ccc(F)cc1Cl)c1nn(COP(=O)(O)O)c(Cl)c1Cl [compound 5, (4,5-dichloro-3-((2-chloro-4-fluorophenyl)carbamoyl)-1H-pyrazol-1-yl)methyl dihydrogen phosphate]
conversion of compound 5 to compound 3 in quenched media samples (FIG. 6) [2]: majority of compound 5 was converted to compound 3
